In patent publication US7968572B2, “Nitrogen-containing heterocyclic compound and pharmaceutical application thereof” (Ono Pharmaceuticals Co., Ltd., priority 2005, dated 2011):

Legend:
[1] = test system: TNF-α production stimulated by lipopolysaccharide (LPS) in THP-1; test: Inhibitory activity against TNF-α production using human cell lines (LPS-stimulated THP-1); assay type: cell-based; conditions: 1.5 h, THP-1 cells, LPS stimulation, 90 minutes at 37° C., TNF-α by ELISA
Experimental: Inhibitory Activity against TNF-α Production using Human Cell Lines
Using THP-1 which is a human monocytic cell line, the inhibitory effect of the compound of the present invention against TNF-α production stimulated by lipopolysaccharide (LPS) was studied.
Each 50 μL of lipopolysaccharide (LPS; 055:B5, Difco) prepared to a concentration of 40 ng/mL using RPMI-1640 medium containing 10% fetal calf serum (hereinafter abbreviated to RPMI-1640) and RPMI-1640 containing the compound of the present invention was added to a 96-well plate for cell culture. 100 μL of the cell suspension of THP-1 (Dainippon Pharmaceutical Co., Ltd, #06-202) prepared to a cell density of 2×10^6 cells/mL using RPMI-1640 was added and cultured for 90 minutes at 37° C. in an incubator (5% CO2, 95% air). After completion of the reaction, the culture medium supernatant was recovered and the amount of produced TNF-α was measured using an ELISA kit (Invitrogen, #850090192).
The inhibitory activity against TNF-α production, which is the effect of the compound of the present invention, was calculated as an inhibition rate (%) by the following equation: Inhibition rate (%)={(AC−AX)/(AC−AB)}×100
wherein AB is a measured value without LPS induction;
AC is a measured value with LPS induction in the absence of a test compound; and
AX is a measured value with LPS induction in the presence of a test compound.
Inhibition rate of compounds with each concentration was calculated, and a value indicating 50% inhibition (IC50) was determined from the inhibition curve.

[2] = test system: TNF-α production induced by lipopolysaccharide (LPS) in rats; test: Rat cytokine-production model; assay type: in vivo; conditions: male SD rat, oral 0.3 mg/kg, LPS 10 μg/kg intravenously after 8 hours, plasma TNF-α ninety minutes after LPS; read-out: Inhibition rate (%) (Dose of compound: 0.3 mg/kg)
Experimental: Rat Cytokine-Production Model
The in vivo effect of the compound of the present invention was studied on TNF-α production induced by lipopolysaccharide (LPS) in rats.
A vehicle containing the compound of the present invention was orally administered to male SD rat (Charles River Japan, Inc.), and after 8 hours, lipopolysaccharide (LPS, 055:B5, Difco) was intravenously administered at the dose of 10 μg/kg (5 animals/group). Only a vehicle was orally administered to a control group (5 animals). Ninety minutes after the LPS treatment, heparinized blood collection was performed via the abdominal vena cava under anesthesia with ether, and blood plasma was obtained by centrifugation (12,000 rpm, 3 minutes, 4° C.). The obtained blood plasma sample was stored at −80° C. until it was used. TNF-α in the blood plasma was measured using an ELISA kit from R&D System (#RTA00).
The inhibitory activity of the compound of the present invention against TNF-α production was calculated as an inhibition rate (%) according to the following equation: Inhibition rate (%)={(AC−AX)/AC}×100
wherein AC is a measured value in case where no test compound was administered under LPS induction, and
AX is a measured value in case where a test compound was administered under LPS induction.

[3] = test system: Chinese hamster lung cells (CHL/IU); test: Phospholipidosis detection system using a fluorescence labeling phospholipid analog (NBD-PE); assay type: cell-based; conditions: for Pospholipid accumulation increasing ratio (% of 30 uM amiodarone) (Dose of compound: 100 uM): about 24 hours with NBD-PE; for Judgment: phospholipidosis inducing activity, NBD-PE
Experimental: Study by a Phospholipidosis Detection System using a Fluorescence Labeling Phospholipid Analog Cell suspension (7×10^4 cells/ml) of Chinese hamster lung cells (CHL/IU) prepared using MEM (minimum essential medium) was added to a 96 well plate (96 well clear bottom plate) by 100 μL/necessary number of wells (2 wells for 1 dosage) and cultured for about 24 hours. After the culturing and subsequent removal of the supernatants on the 96 well plate, the compounds having respective concentrations prepared by dissolving or suspending in MEM medium containing 25 μmol/L of nitrobenzoxazole dipalmitoyl phosphatidyl ethanolamine (NBD-PE) (hereinafter abbreviated to NBD-PE medium) were added thereto by 100 μL/ well and treated for about 24 hours. Treating concentration of each compound was set to be 6.25, 12.5, 25, 50 or 100 μmol/L. […] In this connection, 5 wells of an untreated control (MEM medium alone) or an NBD-PE control (prepared by adding 1/100 volume of DMSO to the NBD-PE medium) were arranged for each compound and cultured in the same manner. After completion of the culturing and subsequent two times of washing with 100 μL/well of phosphate buffered saline (hereinafter abbreviated to PBS) (−), 100 μL of the MEM medium was added to all of the treated wells including two empty wells for the WST-1 background control and cultured for about 0.5 hour. Fluorescence intensity of each well was measured using a microplate reader (manufactured by Molecular Devices, SPECTRA max M2; excitation wavelength 485 nm/fluorescence wavelength 535 nm). Using average value of 2 wells for each dosage, the phospholipid increasing ratio (%) based on NBD-PE control was calculated using the following formula. Phospholipid accumulation increasing ratio (%)=100×(fluorescence intensity of substance to be tested−fluorescence intensity of untreated control)/(fluorescence intensity of NBD-PE control−fluorescence intensity of untreated control) (iii) Cytotoxicity Test The Pre value was calculated by measuring the 96 well plate which was measured in the measurement of phospholipid accumulation, using the microplate reader (manufactured by Molecular Devices, SPECTRA max M2) at a dominant wavelength of 450 nm and a correction wavelength of 690 nm. Premix WST-1 was added to the pre-measured 96 well plate by 5 μL/well. After 2 to 4 hours of culture, the Aft value was calculated by measuring in the same manner as in the Pre measurement. The background control value was subtracted from each of the measured values. Using the value obtained by subtracting the Pre value from the Aft value, the cell growth ratio (%) was calculated using the following formula.

Structure (SMILES) | IC50 [1] [nM] | inhibition at 0.3 mg/kg [2] [%] | Pospholipid accumulation increasing ratio (% of 30 uM amiodarone) (Dose of compound: 100 uM) [3] | Judgment [3]
CC(C)(O)c1nc(-c2ccc(=O)n(-c3c(F)cccc3F)c2)c(-c2ccc(F)cc2F)o1 [Example 7 (21), 1-(2,6-difluorophenyl)-5-[5-(2,4-difluorophenyl)-2-(1-hydroxy-1-methylethyl)-1,3-oxazol-4-yl]-2(1H)-pyridinone] | 1.7 | 85 | 8 % of 30 uM amiodarone | Negative
O=c1ccc(-c2nc(C(O)(CO)CO)oc2-c2ccc(F)cc2F)cn1-c1c(F)cccc1F [Example 7 (39), 1-(2,6-difluorophenyl)-5-{5-(2,4-difluorophenyl)-2-[1,2-dihydroxy-1-(hydroxymethyl)ethyl]-1,3-oxazol-4-yl}-2(1H)-pyridinone] | 1.8 | 64 | 11 % of 30 uM amiodarone | Negative
C[C@@](O)(CO)c1nc(-c2ccc(=O)n(-c3c(F)cccc3F)c2)c(-c2ccc(F)cc2F)o1 [Example 167 (1), 1-(2,6-difluorophenyl)-5-{5-(2,4-difluorophenyl)-2-[(1R)-1,2-dihydroxy-1-methylethyl]-1,3-oxazol-4-yl}-2(1H)-pyridinone] | 0.8 | 73 | 3 % of 30 uM amiodarone | Negative
C[C@](O)(CO)c1nc(-c2ccc(=O)n(-c3c(F)cccc3F)c2)c(-c2ccc(F)cc2F)o1 [Example 167 (2), 1-(2,6-difluorophenyl)-5-{5-(2,4-difluorophenyl)-2-[(1S)-1,2-dihydroxy-1-methylethyl]-1,3-oxazol-4-yl}-2(1H)-pyridinone] | 1.1 | 64 | 18 % of 30 uM amiodarone | Negative
C[C@@](O)(CO)c1nc(-c2ccc(F)cc2F)c(-c2ccc(=O)n(-c3c(F)cccc3F)c2)o1 [Example 211, 1-(2,6-difluorophenyl)-5-{4-(2,4-difluorophenyl)-2-[(1R)-1,2-dihydroxy-1-methylethyl]-1,3-oxazol-5-yl}-2(1H)-pyridinone] | 0.6 | 85 | 8 % of 30 uM amiodarone | Negative
CC(C)(O)Cc1nc(-c2ccc(F)cc2F)c(-c2ccc(=O)n(-c3c(F)cccc3F)c2)o1 [Example 220, 1-(2,6-difluorophenyl)-5-[4-(2,4-difluorophenyl)-2-(2-hydroxy-2-methylpropyl)-1,3-oxazol-5-yl]-2(1H)-pyridinone] | 1.4 | 88 | 11 % of 30 uM amiodarone | Negative
O=c1ccc(-c2oc(C(O)(CO)CO)nc2-c2ccc(F)cc2F)cn1-c1c(F)cccc1F [Example 223, 1-(2,6-difluorophenyl)-5-{4-(2,4-difluorophenyl)-2-[1,2-dihydroxy-1-(hydroxymethyl)ethyl]-1,3-oxazol-5-yl}-2(1H)-pyridinone] | 2.1 | 72 | 12 % of 30 uM amiodarone | Negative

More lines, main results first:

IC50 [1] [nM] | Structure (SMILES) | inhibition at 0.3 mg/kg [2] [%] | Pospholipid accumulation increasing ratio (% of 30 uM amiodarone) (Dose of compound: 100 uM) [3] | Judgment [3]
0.9 | CC(C)(O)[C@H](O)c1nc(-c2ccc(F)cc2F)c(-c2ccc(=O)n(-c3c(F)cccc3F)c2)o1 [Example 206, 1-(2,6-difluorophenyl)-5-{4-(2,4-difluorophenyl)-2-[(1S)-1,2-dihydroxy-2-methylpropyl]-1,3-oxazol-5-yl}-2(1H)-pyridinone] | 79 | 10 % of 30 uM amiodarone | Negative
0.6 | CC(C)(O)[C@@H](O)c1nc(-c2ccc(F)cc2F)c(-c2ccc(=O)n(-c3c(F)cccc3F)c2)o1 [Example 207, 1-(2,6-difluorophenyl)-5-{4-(2,4-difluorophenyl)-2-[(1R)-1,2-dihydroxy-2-methylpropyl]-1,3-oxazol-5-yl}-2(1H)-pyridinone] | 94 | 11 % of 30 uM amiodarone | Negative
0.7 | CC(C)(O)[C@@H](O)c1nc(-c2ccc(=O)n(-c3c(F)cccc3F)c2)c(-c2ccc(F)cc2F)o1 [Example 227 (1), 1-(2,6-difluorophenyl)-5-{5-(2,4-difluorophenyl)-2-[(1R)-1,2-dihydroxy-2-methylpropyl]-1,3-oxazol-4-yl}-2(1H)-pyridinone] | 88 | 13 % of 30 uM amiodarone | Negative
1.7 | CC(C)(O)[C@H](O)c1nc(-c2ccc(=O)n(-c3c(F)cccc3F)c2)c(-c2ccc(F)cc2F)o1 [Example 227, 1-(2,6-difluorophenyl)-5-{5-(2,4-difluorophenyl)-2-[(1S)-1,2-dihydroxy-2-methylpropyl]-1,3-oxazol-4-yl}-2(1H)-pyridinone] | 65 | 12 % of 30 uM amiodarone | Negative
